Reference: patent US20230074545A1, “TREATMENT OF CANCER WITH CDK12/13 INHIBITORS” (Kinnate Biopharma Inc., priority 2019, published 2023)

What was measured:
Experiment in all cases: Radiometric kinase panel
Format in all cases: biochemical
[1] = biological target: T1, AuroraA (Homo sapiens, UniProt O14965)
T1 construct: either as full-length or enzymatically active fragments; purchased ProQinase GmbH (Reaction Biology)
How it was run: (§1)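 Activity was measured radiometrically from [gamma-33P]-ATP incorporation into substrate. The kinases were recombinant human GST- or His-tagged proteins, full-length or active fragments, expressed in Sf9 or E. coli. Compound in 10% DMSO was added before the enzyme/substrate mix, which started the reaction.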

[2] = biological target: T2, AuroraC (Homo sapiens, UniProt Q9UQB9)
T2 construct: either as full-length or enzymatically active fragments; purchased ProQinase GmbH (Reaction Biology)
How it was run: as §1

[3] = biological target: T3, BRSK2 (Homo sapiens, UniProt Q8IWQ3)
T3 construct: either as full-length or enzymatically active fragments; purchased ProQinase GmbH (Reaction Biology)
How it was run: as §1

[4] = biological target: T4, BTK (Homo sapiens, UniProt Q06187)
T4 construct: purchased ProQinase GmbH (Reaction Biology); host or cells: Sf9 insect cells or E. coli (not specified per kinase)
T4 sequence (Q06187 whole entry): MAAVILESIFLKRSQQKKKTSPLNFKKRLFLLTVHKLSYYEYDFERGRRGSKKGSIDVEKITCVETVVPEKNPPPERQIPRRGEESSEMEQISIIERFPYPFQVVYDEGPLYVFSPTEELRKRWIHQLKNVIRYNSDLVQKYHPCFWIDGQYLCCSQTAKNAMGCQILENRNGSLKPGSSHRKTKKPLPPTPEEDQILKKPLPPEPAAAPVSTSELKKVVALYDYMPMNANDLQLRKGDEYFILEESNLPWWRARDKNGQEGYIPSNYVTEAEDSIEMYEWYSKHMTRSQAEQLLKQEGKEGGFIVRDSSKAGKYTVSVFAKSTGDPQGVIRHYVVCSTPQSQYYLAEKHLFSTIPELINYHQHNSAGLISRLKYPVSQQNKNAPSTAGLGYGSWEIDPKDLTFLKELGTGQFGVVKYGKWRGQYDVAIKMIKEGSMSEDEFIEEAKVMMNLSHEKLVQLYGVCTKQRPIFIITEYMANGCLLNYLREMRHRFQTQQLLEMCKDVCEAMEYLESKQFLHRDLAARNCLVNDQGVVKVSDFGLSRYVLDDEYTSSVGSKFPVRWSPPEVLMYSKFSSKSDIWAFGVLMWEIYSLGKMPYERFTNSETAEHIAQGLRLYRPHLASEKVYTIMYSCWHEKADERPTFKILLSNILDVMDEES
How it was run: as §1

[5] = biological target: T5, CAMK4 (Homo sapiens, UniProt Q16566)
T5 construct: either as full-length or enzymatically active fragments; purchased ProQinase GmbH (Reaction Biology)
T5 sequence (Q16566 whole entry, the tested form may be a part): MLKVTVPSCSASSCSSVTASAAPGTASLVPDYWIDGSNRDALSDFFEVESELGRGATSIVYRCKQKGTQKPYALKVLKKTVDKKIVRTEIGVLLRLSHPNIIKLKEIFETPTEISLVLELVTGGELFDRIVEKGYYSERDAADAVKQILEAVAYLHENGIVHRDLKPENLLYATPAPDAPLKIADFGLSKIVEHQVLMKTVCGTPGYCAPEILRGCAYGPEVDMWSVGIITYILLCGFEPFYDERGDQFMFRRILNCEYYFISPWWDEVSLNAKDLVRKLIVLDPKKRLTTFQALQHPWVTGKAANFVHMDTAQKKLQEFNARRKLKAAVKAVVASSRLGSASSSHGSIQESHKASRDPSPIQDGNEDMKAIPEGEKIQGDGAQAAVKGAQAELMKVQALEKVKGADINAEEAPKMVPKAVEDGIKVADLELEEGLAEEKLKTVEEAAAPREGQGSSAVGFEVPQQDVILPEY
How it was run: as §1

[6] = biological target: T6, CAMKK1 (Homo sapiens, UniProt Q8N5S9)
T6 construct: either as full-length or enzymatically active fragments; purchased ProQinase GmbH (Reaction Biology)
How it was run: as §1

[7] = biological target: T7, CDC42BPB (Homo sapiens, UniProt Q9Y5S2)
T7 construct: either as full-length or enzymatically active fragments; purchased ProQinase GmbH (Reaction Biology)
How it was run: as §1

[8] = biological target: T8, DAPK1 (Homo sapiens, UniProt P53355)
T8 construct: either as full-length or enzymatically active fragments; purchased ProQinase GmbH (Reaction Biology); host or cells: Sf9 insect cells or E. coli
How it was run: as §1

[9] = biological target: T9, DCAMKL2 (Homo sapiens, UniProt Q8N568)
T9 construct: purchased ProQinase GmbH (Reaction Biology); host or cells: Sf9 insect cells or E. coli (not specified per kinase)
How it was run: as §1

[10] = biological target: T10, EIF2AK3 (Homo sapiens, UniProt Q9NZJ5)
T10 construct: either as full-length or enzymatically active fragments; purchased ProQinase GmbH (Reaction Biology); host or cells: Sf9 insect cells or E. coli
How it was run: as §1

[11] = biological target: T11, ERBB4 (Homo sapiens, UniProt Q15303)
T11 construct: either as full-length or enzymatically active fragments; purchased ProQinase GmbH (Reaction Biology); host or cells: Sf9 insect cells or E. coli (not specified per kinase)
How it was run: as §1

[12] = biological target: T12, FER (Homo sapiens, UniProt P16591)
T12 construct: either as full-length or enzymatically active fragments; purchased ProQinase GmbH (Reaction Biology); host or cells: Sf9 insect cells or E. coli
How it was run: as §1

[13] = biological target: T13, FGFR2 (Homo sapiens, UniProt P21802)
T13 construct: purchased ProQinase GmbH (Reaction Biology); host or cells: Sf9 insect cells or E. coli (not specified per kinase)
How it was run: as §1

[14] = biological target: T14, IGF1R (Homo sapiens, UniProt P08069)
T14 construct: either as full-length or enzymatically active fragments; purchased ProQinase GmbH (Reaction Biology); host or cells: Sf9 insect cells or E. coli
How it was run: as §1

[15] = biological target: T15, IKKepsilon (Homo sapiens, UniProt Q14164)
T15 construct: either as full-length or enzymatically active fragments; purchased ProQinase GmbH (Reaction Biology)
How it was run: as §1

[16] = biological target: T16, INSRR (Homo sapiens, UniProt P14616)
T16 construct: either as full-length or enzymatically active fragments; purchased ProQinase GmbH (Reaction Biology)
How it was run: as §1

[17] = biological target: T17, MAP3K9 (Homo sapiens, UniProt P80192)
T17 construct: either as full-length or enzymatically active fragments; purchased ProQinase GmbH (Reaction Biology)
T17 sequence (P80192 whole entry, the tested form may be a part): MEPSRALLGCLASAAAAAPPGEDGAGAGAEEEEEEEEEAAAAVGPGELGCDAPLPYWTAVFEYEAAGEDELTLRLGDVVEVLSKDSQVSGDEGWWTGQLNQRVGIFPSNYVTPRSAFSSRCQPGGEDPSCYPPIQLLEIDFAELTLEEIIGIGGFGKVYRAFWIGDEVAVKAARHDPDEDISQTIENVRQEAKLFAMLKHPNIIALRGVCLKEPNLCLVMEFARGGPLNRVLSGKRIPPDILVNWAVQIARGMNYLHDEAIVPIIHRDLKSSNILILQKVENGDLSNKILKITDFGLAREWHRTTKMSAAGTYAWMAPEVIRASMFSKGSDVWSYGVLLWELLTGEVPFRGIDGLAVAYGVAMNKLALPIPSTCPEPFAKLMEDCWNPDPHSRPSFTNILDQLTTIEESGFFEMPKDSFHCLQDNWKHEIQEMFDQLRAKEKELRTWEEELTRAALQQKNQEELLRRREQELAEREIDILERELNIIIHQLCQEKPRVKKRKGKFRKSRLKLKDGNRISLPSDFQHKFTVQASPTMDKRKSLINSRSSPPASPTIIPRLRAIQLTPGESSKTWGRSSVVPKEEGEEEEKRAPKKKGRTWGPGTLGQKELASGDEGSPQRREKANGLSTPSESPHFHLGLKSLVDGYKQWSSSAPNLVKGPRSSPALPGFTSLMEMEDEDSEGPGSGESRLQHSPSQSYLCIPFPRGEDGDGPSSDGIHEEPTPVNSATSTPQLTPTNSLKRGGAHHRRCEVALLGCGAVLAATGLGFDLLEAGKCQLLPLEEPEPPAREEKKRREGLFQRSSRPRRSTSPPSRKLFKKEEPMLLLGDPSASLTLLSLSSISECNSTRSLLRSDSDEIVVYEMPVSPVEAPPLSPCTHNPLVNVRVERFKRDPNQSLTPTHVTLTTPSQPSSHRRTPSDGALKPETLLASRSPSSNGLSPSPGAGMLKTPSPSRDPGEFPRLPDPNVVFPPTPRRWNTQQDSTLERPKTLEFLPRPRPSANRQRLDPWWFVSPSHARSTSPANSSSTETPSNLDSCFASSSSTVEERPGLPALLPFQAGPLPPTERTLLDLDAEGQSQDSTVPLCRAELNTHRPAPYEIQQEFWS
How it was run: as §1

[18] = biological target: T18, MAPKAPK2 (Homo sapiens, UniProt P49137)
T18 construct: either as full-length or enzymatically active fragments; purchased ProQinase GmbH (Reaction Biology); host or cells: Sf9 insect cells or E. coli
How it was run: as §1

[19] = biological target: T19, MERTK (Homo sapiens, UniProt Q12866)
T19 construct: either as full-length or enzymatically active fragments; purchased ProQinase GmbH (Reaction Biology)
How it was run: as §1

[20] = biological target: T20, PKCeta (Homo sapiens, UniProt P24723)
T20 construct: either as full-length or enzymatically active fragments; purchased ProQinase GmbH (Reaction Biology); host or cells: Sf9 insect cells or E. coli
T20 sequence (P24723 whole entry, the tested form may be a part): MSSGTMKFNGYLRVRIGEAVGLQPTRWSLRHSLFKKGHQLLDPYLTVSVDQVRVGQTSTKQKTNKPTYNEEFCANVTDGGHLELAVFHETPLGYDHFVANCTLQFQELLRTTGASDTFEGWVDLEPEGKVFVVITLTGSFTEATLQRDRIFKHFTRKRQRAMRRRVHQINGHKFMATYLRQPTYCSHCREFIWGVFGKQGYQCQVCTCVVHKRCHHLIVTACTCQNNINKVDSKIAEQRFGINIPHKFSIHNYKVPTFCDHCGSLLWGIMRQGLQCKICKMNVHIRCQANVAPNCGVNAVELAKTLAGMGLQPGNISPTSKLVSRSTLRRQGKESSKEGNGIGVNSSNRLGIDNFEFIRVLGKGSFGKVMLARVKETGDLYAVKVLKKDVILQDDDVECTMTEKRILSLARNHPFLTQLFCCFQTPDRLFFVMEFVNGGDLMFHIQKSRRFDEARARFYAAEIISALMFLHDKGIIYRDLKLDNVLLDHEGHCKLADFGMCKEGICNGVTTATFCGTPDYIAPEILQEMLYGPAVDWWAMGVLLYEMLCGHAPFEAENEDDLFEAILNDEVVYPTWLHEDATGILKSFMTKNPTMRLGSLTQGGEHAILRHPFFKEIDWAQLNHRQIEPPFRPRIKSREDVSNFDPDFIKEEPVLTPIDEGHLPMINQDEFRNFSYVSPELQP
How it was run: as §1

[21] = biological target: T21, PLK3 (Homo sapiens, UniProt Q9H4B4)
T21 construct: either as full-length or enzymatically active fragments; purchased ProQinase GmbH (Reaction Biology); host or cells: Sf9 insect cells or E. coli
How it was run: as §1

[22] = biological target: T22, PRKG2 (Homo sapiens, UniProt Q13237)
T22 construct: either as full-length or enzymatically active fragments; purchased ProQinase GmbH (Reaction Biology)
How it was run: as §1

[23] = biological target: T23, PRKX (Homo sapiens, UniProt P51817)
T23 construct: either as full-length or enzymatically active fragments; purchased ProQinase GmbH (Reaction Biology)
T23 sequence (P51817 whole entry, the tested form may be a part): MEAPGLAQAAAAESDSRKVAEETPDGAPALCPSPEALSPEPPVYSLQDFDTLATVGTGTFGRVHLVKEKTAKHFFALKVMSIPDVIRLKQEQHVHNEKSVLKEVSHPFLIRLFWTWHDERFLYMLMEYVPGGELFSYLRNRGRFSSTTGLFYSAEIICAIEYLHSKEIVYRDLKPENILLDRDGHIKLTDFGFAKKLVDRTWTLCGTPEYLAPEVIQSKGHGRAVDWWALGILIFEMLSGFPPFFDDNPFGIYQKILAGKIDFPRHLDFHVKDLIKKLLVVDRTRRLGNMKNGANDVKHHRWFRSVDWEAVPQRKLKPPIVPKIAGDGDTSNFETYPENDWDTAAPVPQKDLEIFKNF
How it was run: as §1

[24] = biological target: T24, RET (Homo sapiens, UniProt P07949)
T24 construct: either as full-length or enzymatically active fragments; purchased ProQinase GmbH (Reaction Biology)
How it was run: as §1

[25] = biological target: T25, SGK2 (Homo sapiens, UniProt Q9HBY8)
T25 construct: purchased ProQinase GmbH (Reaction Biology); host or cells: Sf9 insect cells or E. coli (not specified per kinase)
T25 sequence (Q9HBY8 whole entry): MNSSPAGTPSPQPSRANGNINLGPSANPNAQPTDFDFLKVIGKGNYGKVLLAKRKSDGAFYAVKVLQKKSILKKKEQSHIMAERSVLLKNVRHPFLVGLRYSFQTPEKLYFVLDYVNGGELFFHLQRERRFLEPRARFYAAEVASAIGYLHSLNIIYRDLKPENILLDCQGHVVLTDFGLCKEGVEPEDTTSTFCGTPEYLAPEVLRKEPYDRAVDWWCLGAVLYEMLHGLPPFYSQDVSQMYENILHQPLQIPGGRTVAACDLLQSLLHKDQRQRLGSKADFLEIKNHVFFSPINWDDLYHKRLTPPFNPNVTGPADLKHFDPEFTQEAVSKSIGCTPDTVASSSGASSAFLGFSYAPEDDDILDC
How it was run: as §1

[26] = biological target: T26, SRPK2 (Homo sapiens, UniProt P78362)
T26 construct: purchased ProQinase GmbH (Reaction Biology)
How it was run: as §1

[27] = biological target: T27, STK39 (Homo sapiens, UniProt Q9UEW8)
T27 construct: either as full-length or enzymatically active fragments; purchased ProQinase GmbH (Reaction Biology)
How it was run: as §1

[28] = biological target: T28, TLK2 (Homo sapiens, UniProt Q86UE8)
T28 construct: either as full-length or enzymatically active fragments; purchased ProQinase GmbH (Reaction Biology)
T28 sequence (Q86UE8 whole entry, the tested form may be a part): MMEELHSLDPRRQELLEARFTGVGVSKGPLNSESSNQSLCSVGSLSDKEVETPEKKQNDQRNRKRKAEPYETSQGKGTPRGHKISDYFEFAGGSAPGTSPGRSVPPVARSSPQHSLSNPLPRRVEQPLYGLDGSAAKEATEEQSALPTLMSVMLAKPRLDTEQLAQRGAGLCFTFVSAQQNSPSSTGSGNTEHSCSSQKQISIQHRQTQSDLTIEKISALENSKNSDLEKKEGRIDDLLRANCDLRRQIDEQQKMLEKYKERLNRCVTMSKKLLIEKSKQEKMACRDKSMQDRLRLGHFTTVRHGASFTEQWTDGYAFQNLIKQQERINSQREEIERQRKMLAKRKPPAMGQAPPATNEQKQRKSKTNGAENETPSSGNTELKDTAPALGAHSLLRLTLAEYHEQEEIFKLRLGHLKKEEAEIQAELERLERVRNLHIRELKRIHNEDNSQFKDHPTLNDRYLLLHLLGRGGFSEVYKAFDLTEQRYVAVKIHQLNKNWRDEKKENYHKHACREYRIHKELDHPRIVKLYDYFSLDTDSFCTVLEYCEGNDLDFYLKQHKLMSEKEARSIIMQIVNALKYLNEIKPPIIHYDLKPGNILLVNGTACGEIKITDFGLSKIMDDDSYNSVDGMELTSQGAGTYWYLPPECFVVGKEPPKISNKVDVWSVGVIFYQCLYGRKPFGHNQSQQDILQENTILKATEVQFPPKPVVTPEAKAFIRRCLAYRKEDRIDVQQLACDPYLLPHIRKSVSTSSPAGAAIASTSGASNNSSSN
How it was run: as §1

[29] = biological target: T29, TSSK1 (Homo sapiens, UniProt Q9BXA7)
T29 construct: either as full-length or enzymatically active fragments; purchased ProQinase GmbH (Reaction Biology)
T29 sequence (Q9BXA7 whole entry, the tested form may be a part): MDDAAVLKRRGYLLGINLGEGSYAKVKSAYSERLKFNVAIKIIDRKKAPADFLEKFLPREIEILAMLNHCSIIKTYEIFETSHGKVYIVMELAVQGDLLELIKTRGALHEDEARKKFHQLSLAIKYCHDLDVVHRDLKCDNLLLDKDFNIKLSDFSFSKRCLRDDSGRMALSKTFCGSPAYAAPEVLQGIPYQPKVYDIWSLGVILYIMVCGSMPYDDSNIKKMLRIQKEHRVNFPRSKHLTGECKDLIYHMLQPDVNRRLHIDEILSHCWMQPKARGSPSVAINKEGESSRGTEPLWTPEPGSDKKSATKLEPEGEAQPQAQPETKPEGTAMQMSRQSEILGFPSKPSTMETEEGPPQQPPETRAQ
How it was run: as §1

[30] = biological target: T30, TTK (Homo sapiens, UniProt P33981)
T30 construct: either as full-length or enzymatically active fragments; purchased ProQinase GmbH (Reaction Biology); host or cells: Sf9 insect cells or E. coli
How it was run: as §1

[31] = biological target: T31, TYK2 (Homo sapiens, UniProt P29597)
T31 construct: either as full-length or enzymatically active fragments; purchased ProQinase GmbH (Reaction Biology)
How it was run: as §1

C=CC(=O)Nc1ccc(C(=O)N2CC[C@@H](Nc3ncc(C#N)cn3)C2)cc1 [Compound 4, (R)-N-(4-(3-((5-cyanopyrimidin-2-yl)amino)pyrrolidine-1-carbonyl)phenyl)acrylamide]
inhibition at 1 µM [1]: 5%
inhibition at 1 µM [2]: 16%
inhibition at 1 µM [3]: -10%
inhibition at 1 µM [4]: 1%
inhibition at 1 µM [5]: 8%
inhibition at 1 µM [6]: 3%
inhibition at 1 µM [7]: 7%
inhibition at 1 µM [8]: -15%
inhibition at 1 µM [9]: 0%
inhibition at 1 µM [10]: 14%
inhibition at 1 µM [11]: 9%
inhibition at 1 µM [12]: 15%
inhibition at 1 µM [13]: 0%
inhibition at 1 µM [14]: -23%
inhibition at 1 µM [15]: 7%
inhibition at 1 µM [16]: 5%
inhibition at 1 µM [17]: -4%
inhibition at 1 µM [18]: -24%
inhibition at 1 µM [19]: -8%
inhibition at 1 µM [20]: -14%
inhibition at 1 µM [21]: 13%
inhibition at 1 µM [22]: -6%
inhibition at 1 µM [23]: -7%
inhibition at 1 µM [24]: 5%
inhibition at 1 µM [25]: 1%
inhibition at 1 µM [26]: 0%
inhibition at 1 µM [27]: 6%
inhibition at 1 µM [28]: -10%
inhibition at 1 µM [29]: -10%
inhibition at 1 µM [30]: 12%
inhibition at 1 µM [31]: 6%
